“Also recorded” adds a separate entry of the source.

In the data set the test system is Sap9. In words: purified recombinant Sap9. Conditions: C. albicans, 37 °C, up to 2 h.
Regarding DSHAKRHHGYKRKFHEKHHSHRGY, the cleaved bond result is on record as “K17-H18; also recorded: R12-K13; also recorded: K13-F14; also recorded: H18-H19”. For the sequence DSHAKRHHGYKRRFHEKHHSHRGY, the fragment found entry is reported as “amino acids 1–17; also recorded: amino acids 18–24”.

As for DSHAKRHHGYLRKFHEKHHSHRGY, the fragment found result was “amino acids 1–17; also recorded: amino acids 18–24”.

For DSHAKRHHGYRRKFHEKHHSHRGY, the fragment found result is reported as “amino acids 1–17; also recorded: amino acids 18–24”.

For DSHALRHHGYKRKFHEKHHSHRGY, the fragment found result is reported as “amino acids 1–17; also recorded: amino acids 18–24”. DSHARRHHGYKRKFHEKHHSHRGY: the fragment found result is given as “amino acids 1–17; also recorded: amino acids 18–24”.
